Consider 6 compounds from patent US20190274978A1, “ANTIBACTERIAL COMPOSITIONS” (priority 2016, published 2019).

Broadly, the MIC is the least concentration at which growth counts as inhibited.

The test system of one data set is macrophages. To be noted: cited from earlier work.
The test system of data set [1] is Acinetobacter baumannii. The note with it: Rajamuthiah et al. (2015), compound alone; cited from earlier work.
The subject of data set [2] is quorum sensing system in Pseudomonas aeruginosa. The note with it: among FDA-approved drugs tested, Imperi et al. (2013); cited from earlier work.
In data set [3] the test system is E. coli strain 7KOΔtolC:roGFP. Put plainly: Real-time measurement of intrabacterial redox potential (roGFP). To be noted: niclosamide alone in strain with in-frame deletion of tolC; FIG. 59.
Procedure: (§1) Cells were fixed with N-ethylmaleimide at various time points post niclosamide incubation, and then passed through a flow cytometry system. The ImageStream recorded each individual cell and all images were processed automatically.
In vivo analysis of the intrabacterial redox potential was performed at 30° C. in a Synergy H1 Multimode plate reader (BioTek) with excitation measured at 405 and 480 nm and emission measured at 510 nm. Log phase bacterial cultures of 7KO:roGFP or 7KOΔtolC:roGFP were resuspended in 0.9% saline at OD 1.0, and 100 μL aliquots were loaded in individual wells of a black, clear-bottom 96-well plate. Background signals from the non-fluorescent (i.e., without pRSETB-RoGFP2) corresponding strain were obtained in the same experiment. Fluorescence signals were followed for 160-180 min, and the resulting 405/480 ratio signals were calculated. […]
Samples were analyzed by the AMNIS ImageStream as previously described (van der Heijden et al. (2015) Proc Natl Acad Sci USA 112, 560-565). […] The data files were further analyzed using IDEAS software, version 6.0.129.0, which is supplied by AMNIS. Bacterial cells were selected based on fluorescence at 660 nm. […]
In vivo analysis of the intrabacterial redox potential was done at 30° C. in a Synergy H1 Multimode plate reader (BioTek) with excitation at 405 and 480 nm while emission was measured at 510 nm. […]
For a further data set, the system named is P. aeruginosa. To be noted: Imperi et al. (2013), FIG. 2A there; cited from earlier work.
In data set [4] the test system is Pseudomonas aeruginosa. Put plainly: Antibiotic combination growth assay (384-well checkerboard, OD600).
In a further data set the test system is M. tuberculosis. To be noted: de Carvalho et al. (2011); cited from earlier work.
A further data set concerns MRSA. To be noted: Rajamuthiah et al. (2014, 2015); cited from earlier work.
The subject of the next data set is Escherichia coli. Kind of data set: Antibiotic combination growth assay (384-well checkerboard, OD600).
The test system of data set [5] is Klebsiella pneumoniae. The data set is described as above. To be noted: in conjunction with a polymyxin (polymyxin B or polymyxin E (colistin)); antibiotic-resistant and laboratory strains; FIGS. 21-28.
The subject of another data set is Salmonella enterica. The description is as above. It counts as cell-based. The note with it: in conjunction with a polymyxin (polymyxin B or polymyxin E (colistin)); Serovar Typhimurium (SL1344); FIGS. 33-36.
For data set [6], the system named is Acinetobacter baumannii. Described as above. The note with it: in conjunction with a polymyxin (polymyxin B or polymyxin E (colistin)); ATCC type strain 19606; FIGS. 37-40.
Data set [7] deals with Mycobacterium tuberculosis. To be noted: cited from earlier work.
Another data set relates to Gram negative bacteria. The note with it: in combination with an efflux pump inhibitor (e.g. TolC efflux pump inhibitor); PCT/NZ2015/050192; cited from earlier work.
The next data set concerns E. coli strain 7KO:roGFP. Kind of data set: Real-time measurement of intrabacterial redox potential (roGFP).
The test system of data set [8] is methicillin-resistant Staphylococcus aureus (MRSA). To be noted: Lau et al. (2015), under the assay conditions used; cited from earlier work.
The next data set deals with Enterococcus faecium. The note with it: Rajamuthiah et al. (2015); cited from earlier work.
Another data set has as its system Enterobacter cloacae. Kind of data set: Antibiotic combination growth assay (384-well checkerboard, OD600). To be noted: in conjunction with a polymyxin (polymyxin B or polymyxin E (colistin)); subsp. cloacae ATCC 13047; FIGS. 29-32.
The test system of data set [9] is Pseudomonas aeruginosa. To be noted: Rajamuthiah et al. (2015), compound alone; cited from earlier work.
In a further data set the test system is Enterobacter aerogenes. To be noted: Rajamuthiah et al. (2015), compound alone; cited from earlier work.
Data set [10] deals with Klebsiella pneumoniae. To be noted: Rajamuthiah et al. (2015), compound alone; cited from earlier work.

“Also recorded” adds a separate entry of the source.

Procedure for E. coli strain 7KO:roGFP: as §1
In vivo analysis of the intrabacterial redox potential was performed at 30° C. in a Synergy H1 Multimode plate reader (BioTek) with excitation measured at 405 and 480 nm and emission measured at 510 nm. Log phase bacterial cultures of 7KO:roGFP or 7KOΔtolC:roGFP were resuspended in 0.9% saline at OD 1.0, and 100 μL aliquots were loaded in individual wells of a black, clear-bottom 96-well plate. Background signals from the non-fluorescent (i.e., without pRSETB-RoGFP2) corresponding strain were obtained in the same experiment. Fluorescence signals were followed for 160-180 min, and the resulting 405/480 ratio signals were calculated. […] Reduced and oxidized controls were obtained within each experiment using a final concentration of 10 mM H2O2 or 1 mM DTT respectively.
Samples were analyzed by the AMNIS ImageStream as previously described (van der Heijden et al. (2015) Proc Natl Acad Sci USA 112, 560-565). The laser intensities for 405, 488, 658, and 785 nm were 100, 120, 20, and 3.8, respectively. The data files were further analyzed using IDEAS software, version 6.0.129.0, which is supplied by AMNIS. Bacterial cells were selected based on fluorescence at 660 nm. Every image of an infected cell was then selected by the program based on fluorescent intensity at 660 nm. Based on this selection, a mask was created that was used for analysis of the 405/480 nm ratio. The resulting 405/480 ratio signals were plotted in a histogram. Reduced and oxidized controls were obtained within each experiment, and all values were normalized to oxidized and reduced ratio values.
In vivo analysis of the intrabacterial redox potential was done at 30° C. in a Synergy H1 Multimode plate reader (BioTek) with excitation at 405 and 480 nm while emission was measured at 510 nm. Log phase bacterial cultures were resuspended in 0.9% saline at OD 1.0, and 200 μL per well were loaded in a black, clear-bottom 96-well plate. Background signals from the nonfluorescent corresponding strain were obtained in the same experiment.

As for `O=C(Nc1ccc([N+](=O)[O-])cc1Cl)c1cc(Cl)ccc1O` [niclosamide, N-(2′-chloro-4′-nitrophenyl)-5-chlorosalicylamide], the toxicity against macrophages entry in the data set with macrophages is “did observe toxicity”. The inhibition of growth result in the data set with Acinetobacter baumannii [1] is “neither niclosamide nor oxyclozanide were active”; with P. aeruginosa, “failed to inhibit the growth”; in the data set with Pseudomonas aeruginosa [9] it was “neither niclosamide nor oxyclozanide were active”; with Enterobacter aerogenes it was “neither niclosamide nor oxyclozanide were active”; with Klebsiella pneumoniae [10] it was “neither niclosamide nor oxyclozanide were active”. Besides, the anti-quorum sensing activity entry in data set [2] is “highest anti-quorum sensing activity”. For the same compound, the “intracellular redox stress (405/480 nm ratio)” value in data set [3] is “experienced increasing redox stress; also recorded: irreversible increase in intracellular redox stress”; with E. coli strain 7KO:roGFP (1 μM niclosamide in combination with 0.5 μM colistin, FIG. 60 C), “irreversible increase in intracellular redox stress”; in the data set on E. coli strain 7KO:roGFP (1 μM niclosamide in combination with 0.5 μM polymyxin B, FIG. 60 D) it was “irreversible increase in intracellular redox stress”; in the data set with E. coli strain 7KO:roGFP (1 μM niclosamide in combination with 25 μM PAβN (TolC efflux pump inhibitor), FIG. 60 B), “irreversible increase in intracellular redox stress”; with E. coli strain 7KO:roGFP (niclosamide alone, FIG. 59), “did not experience significant redox stress”. Besides, the “growth inhibition effect of the combination” value is recorded as “synergistic growth inhibition effect” in the data set on Pseudomonas aeruginosa [4] (in conjunction with a polymyxin (polymyxin B or polymyxin E (colistin)), antibiotic-resistant and laboratory strains, FIGS. 13-20); “synergistic growth inhibition effect” with Escherichia coli (in conjunction with a polymyxin (polymyxin B or polymyxin E (colistin)), antibiotic-resistant and laboratory strains, FIGS. 1-12); “synergistic growth inhibition effect” in the data set with Klebsiella pneumoniae [5]; “synergistic growth inhibition effect” in the data set with Salmonella enterica; “synergistic growth inhibition effect” in the data set with Acinetobacter baumannii [6]; “synergistic growth inhibition effect” in the data set on Enterobacter cloacae. The “uncoupling of the membrane potential” value in the data set on M. tuberculosis is listed as “uncoupled the membrane potential”. Besides, in the data set on MRSA, the “toxicity / activity against MRSA” value is “directly toxic”. Besides, in data set [7] (Sun and Zhang (1999)), the MIC was 0.5 to 1.0 µg/mL. In data set [7] (grown in low oxygen conditions), the “activity against non-replicating M. tuberculosis” value is recorded as “active”. In addition, the “direct toxicity to Gram negative bacteria” value in the data set with Gram negative bacteria is listed as “directly toxic”. Further, the minimum inhibitory concentration entry in data set [8] is “sub-micromolar”. In the data set with Enterococcus faecium, the “toxicity to Enterococcus faecium” value is recorded as “directly toxic”.

In the case of Gramicidin, the “growth inhibition effect of the combination” value with Pseudomonas aeruginosa [4] (gramicidin with niclosamide, antibiotic-resistant clinical isolate (NZ isolate AR 00/537), FIGS. 43-44) is “synergistic growth inhibition effect”; in the data set with Escherichia coli (gramicidin with niclosamide, E. coli laboratory strain W3110, FIGS. 41-42), “synergistic growth inhibition effect”.

Take `O=[N+]([O-])c1ccc(O)c([N+](=O)[O-])c1` [2,4-dinitrophenol]: in the data set on Escherichia coli (with colistin, E. coli MG1655, FIGS. 45, 46, 53-58), the “synergistic effect in combination with colistin” value was “only weak synergistic effect”.

As for `O=C(Nc1cc(Cl)cc(Cl)c1O)c1c(O)c(Cl)cc(Cl)c1Cl` [oxyclozanide, 2,3,5-trichloro-N-(3,5-dichloro-2-hydroxyphenyl)-6-hydroxybenzamide], the inhibition of growth result in the data set on Acinetobacter baumannii [1], with Pseudomonas aeruginosa [9], with Enterobacter aerogenes and in the data set on Klebsiella pneumoniae [10] was “neither niclosamide nor oxyclozanide were active” each time. Moreover, in the data set with MRSA, the “toxicity / activity against MRSA” value was “directly toxic”. Moreover, the “toxicity to Enterococcus faecium” value with Enterococcus faecium is “directly toxic”.

`CC(=O)Oc1ccccc1C(=O)Nc1ncc([N+](=O)[O-])s1` [nitazoxanide, 2-acetyloxy-N-(5-nitro 2-thiazolyl)benzamide]: the “uncoupling of the membrane potential” value in the data set on M. tuberculosis was “uncoupled the membrane potential”.

Consider `Cc1cc(C(C#N)c2ccc(Cl)cc2)c(Cl)cc1NC(=O)c1cc(I)cc(I)c1O` (stereo not drawn) [closantel, N-[5-Chloro-4-[(4-chlorophenyl)-cyanomethyl]-2-methylphenyl]-2-hydroxy-3,5-diiodobenzamide], for which the “toxicity / activity against MRSA” value in the data set on MRSA was “active”.
